In PMC7641245 (Chemical communications (Cambridge, England), 2020):

Target: T1, hIAPP (human islet amyloid polypeptide) (Homo sapiens, UniProt P10997)
T1 sequence (P10997 34-70): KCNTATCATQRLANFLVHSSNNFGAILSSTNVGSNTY
Experiment: isothermal titration calorimetry
Type: binding
Details: hIAPP fibers; no interaction seen by ITC with hIAPP monomers

- Kd: ~7 µM
Substance: CurDAc
